Entries after “also recorded” stand apart in the source; their conditions may differ.
Assays:
[1] = 24 hours or similar, protected from light and air; Shealy et al, 1997; cited from earlier work
[2] = Toxicity observations in rats receiving retinoids in feed; format: in vivo, rat (Sprague-Dawley); conditions: administered in feed
Procedure: (§1) Retinoid diet mixtures were stored at 4° C. […] The animals were palpated for mammary tumors 2×/week. […] Also, five rats/group had complete necropsies performed.

[3] = system: MNU-induced mammary cancer; test: Short-term (90-day) assay against MNU-induced mammary cancer in rats (Expts. 2 and 3); format: in vivo, rat (female Sprague-Dawley); conditions: for effectiveness in reducing the number of tumors per rat: in feed
Procedure: as §1
(§2) The 2,5-dimethoxybenzyl (3b) and 4-methoxybenzyl (3e) ethers were tested in the same way in a 90-day study. […] The 2,5-dimethybenzyl (3c) and the 2,3-dimethoxybenzyl (3h) ethers, together with RTMBE for comparison, were likewise assayed according to the same methodology. Prior to the beginning of this study, specimens of the retinoid-diet mixtures were placed under the conditions that were employed during the storage and feeding of RTMBE, 3c, and 3h. The specimens were extracted with butanol, and the extracts were analyzed by HPLC. […] Testing of 3c and 3h was discontinued, but the RTMBE study was continued until the duration of the study was 180 days (Table 6). The results were similar to those of Experiment 1 (Table 3). The averages of the number of tumors per rat were reduced by 32-35%; in addition, the averages of the tumor weights per rat was 56-70% lower than the average tumor burden of the control group.
and was continued until the studies of 3b, 3c, 3e, and 3h were terminated
90 days after administration of MNU. The RTMBE experiment was continued
until 180 days after MNU administration (Table VI).
kilogram of Teklad diet.

[4] = Analysis of feed samples for stability of retinyl ethers; format: physicochemical; conditions: for % recovery of retinyl ether: Vehicle + Retinoid (only); for stability in diet mixtures: conditions of storage and feeding in animal rooms
Procedure: as §2
^a The values in each column are % recoveries of the retinyl ether from
mixtures of the ether with feed samples and are based on the actual
amounts of the ether that were added.
^b The samples that were analyzed were mixtures of vehicle, retinoid,
and feed (prepared as described by Shealy et al., 1997).
^c Food cups were placed in animal cages within the room that housed
the rats; therefore, temperature (22° C.) and lighting were
identical to those in use during the in vivo tests.

in vivo = conditions: for NOAEL: mouse, in vivo, po; for Toxic Dose: oral gavage in corn oil, 28-29 days; for clinical toxicity (alopecia, scaly skin, limping): oral gavage, up to highest dose (RTMBE and RMoBE-4: Expt. 2)
Procedure: Toxicological evaluations involving measurement of body weights and observations of clinical signs characteristic of retinoid toxicity were accomplished as previously described (Lin et al., 1996).
RTMBE and two of its analogues, together with RME and RPE, were selected for estimation of their toxicities to mice when administered during 28-29 days by gavage in corn oil (Table 8). Mice were evaluated for changes in body weight and for signs of clinical retinoid toxicity (hypervitaminosis A) including alopecia, scaly skin, and limping. In the first experiment, these retinyl ethers were given at equimicromolar doses at three dose levels. The retinyl benzyl ethers (RTMBE, 3c, and 3e) were then tested at higher doses in a second experiment.

[5] = biological target: T1, cellular retinol-binding protein (CRBP) (Rattus norvegicus, UniProt P02696); test: Binding to cellular retinol-binding protein (CRBP): inhibition of [3H]retinol binding, sucrose density-gradient sedimentation; conditions: for Percent Inhibition of [3H] Retinol Binding (CRBP Assay): 150-fold molar excess of unlabelled test retinoid, rat testes cytosol
T1 construct: portions of rat testes cytosol (1 mg protein) were incubated; from tissue; host or cells: rat testes cytosol
T1 sequence (P02696 1-135): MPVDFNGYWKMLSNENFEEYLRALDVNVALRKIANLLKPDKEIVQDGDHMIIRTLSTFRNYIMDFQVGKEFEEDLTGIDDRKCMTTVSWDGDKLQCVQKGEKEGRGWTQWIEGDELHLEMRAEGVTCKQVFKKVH
Procedure: Binding affinities of the retinyl ethers for CRBP were determined by sucrose, density-gradient, sedimentation analysis as described before (Sani et al., 1980). Briefly, portions of rat testes cytosol (1 mg protein) were incubated with [^3 H]retinol (50 pmol) in the presence or absence of a 150-fold molar excess of unlabeled retinol or the test retinoids. The preparations after dialysis were analyzed by 5-20% sucrose density gradient sedimentation. For measuring the competitive binding of the unlabeled retinoids, inhibition of [^3 H]retinol binding to CRBP by unlabeled retinol is regarded as 100%. The mean and standard deviation calculated from the relative inhibitions obtained from multiple determinations were used as the relative binding affinities of the various retinyl ethers.
The group of retinyl benzyl ethers has now been evaluated for binding to CRBP. Binding to CRBP, as defined for Table I, at approximately 60% or higher was rated as strong; at 40-60%, as moderate; at 20-40%, as low.
^a Per cent inhibition of binding of tritiated retinol to CRBP by a
150-fold molar excess of the unlabelled test retinoid (Sani et al., 1980,

[6] = Mammary tissue-to-plasma concentration after intravenous dosing; format: in vivo, rat (female Sprague-Dawley); conditions: rat, 5 mg/kg i.v., after 24 hr, read-out: ratio of mammary tissue-to-plasma concentrations
[7] = system: carcinogen-induced mammary cancer; conditions: rats; Thompson et al., 1978 / Shealy et al., 1997; cited from earlier work
[8] = rat, in feed; Shealy et al., 1997; cited from earlier work
[9] = system: MNU-induced mammary tumors; conditions: with MNU, 1 mmol/kg diet
Procedure: The methods employed in the preparation of diets, analyses of retinoid-dietspecimens, and dietary treatment with retinoids of MNU-induced mammary carcinogenesis in Sprague-Dawley rats were described previously (Grubbs et al., 1995; Shealy et al., 1997). Briefly, diets were prepared by mixing each retinoid with Wayne meal or Teklad (4%) mash diet. For each kg of diet, the retinoid was dissolved in 12 g ethanol, 19 g trioctanoin, 0.05 mL Tenox 20, and 0.05 mL d,1-alpha tocopherol prior to incorporation into the feed using a Patterson-Kelly blender. Retinoid diet mixtures were stored at 4° C. Portions of each retinoid-diet mixture were analyzed for the added retinoid to ensure homogeneity. Female Sprague-Dawley rats received an i.v. injection of MNU (45 mg/kg body weight) at 50 days of age. Diet supplementation with retinoids was initiated three days after MNU. A group of rats receiving retinyl acetate (1 mmol/kg of diet) served as the positive control. The animals were palpated for mammary tumors 2×/week. At termination of the study, mammary tumors were processed for histological classification. Also, five rats/group had complete necropsies performed. The tissues were examined histologically for pathological lesions as additional toxicological evaluation. Extracts of the liver and mammary gland (5 rats/group) were analyzed by HPLC for retinyl palmitate and/or for the dosed retinoid. Statistical analyses of cancer incidence and latency were determined using logrank analysis, while differences in cancer multiplicity were determined employing the Armitage test.
^b Average number of palpable mammary tumors.
^c Diet supplementation with retinoids was initiated at 52 days of age
and was continued until the study was terminated 180 days after
administration of MNU. Treatment with retinoids is stated in millimoles of
retinoid per kilogram of diet (Wayne meal).
^d Female Sprague-Dawley rats received one i.v. injection of MNU (50
mg/kg of body weight) at 50 days of age.

[10] = system: MNU-induced mammary cancer; conditions: 160 days
Procedure: Briefly, diets were prepared by mixing each retinoid with Wayne meal or Teklad (4%) mash diet. For each kg of diet, the retinoid was dissolved in 12 g ethanol, 19 g trioctanoin, 0.05 mL Tenox 20, and 0.05 mL d,1-alpha tocopherol prior to incorporation into the feed using a Patterson-Kelly blender. Retinoid diet mixtures were stored at 4° C. Portions of each retinoid-diet mixture were analyzed for the added retinoid to ensure homogeneity. Female Sprague-Dawley rats received an i.v. injection of MNU (45 mg/kg body weight) at 50 days of age. Diet supplementation with retinoids was initiated three days after MNU. A group of rats receiving retinyl acetate (1 mmol/kg of diet) served as the positive control. The animals were palpated for mammary tumors 2×/week. At termination of the study, mammary tumors were processed for histological classification. Also, five rats/group had complete necropsies performed. The tissues were examined histologically for pathological lesions as additional toxicological evaluation. Extracts of the liver and mammary gland (5 rats/group) were analyzed by HPLC for retinyl palmitate and/or for the dosed retinoid. Statistical analyses of cancer incidence and latency were determined using logrank analysis, while differences in cancer multiplicity were determined employing the Armitage test.
In this assay, described previously (Grubbs et al., 1995; Shealy el al., 1997), a retinoid dissolved in a solution (vehicle) consisting of ethanol and trioctanoin plus small amounts of Tenox 20 and α-tocopherol was mixed with feed, and the mixture was fed to rats after intravenous injection of MNU.
^a Female Sprague-Dawley rats (10/group) received one i.v. injection of
MNU (45 mg/kg of body weight) at 50 days of age. Diet supplementation with
retinoids was initiated at 52 days of age and was continued until the
study was terminated 160 days after administration of MNU.
^b Treatment with retinoids is stated in millimoles of retinoid per
kilogram of diet (Wayne meal).

[11] = Expt. 3, 0.5 mmol/kg diet, 90 days
[12] = Expt. 3, 1 mmol/kg diet, 90 days
[13] = Expt. 3, 2 mmol/kg diet, 90 days
[14] = After 1 week of 4° C., 10080 min
[15] = After 1 day in food cup (22° C.)
[16] = After 2 days in food cup (22° C.)
[17] = After 3 days in food cup (22° C.)
[18] = Expt. 2, 0.5 mmol/kg diet, 90 days
[19] = Expt. 2, 1 mmol/kg diet, 90 days
[20] = Expt. 2, 2 mmol/kg diet, 90 days

For `CC#CCOCC#CC` [Compound 1e, 2-butynyl ether], the “stability in refluxing ethanol” value [1] is given as “intramolecular cyclization”.

With `CC1=C(/C=C/C(C)=C/C=C/C(C)=C/COCc2cc(C)ccc2C)C(C)(C)CCC1` [Compound 3c, Retinyl 2,5-Dimethylbenzyl Ether] the “toxicity in MNU-mammary cancer studies” value [2] was “not toxic in the mammary carcinogenesis studies”, the “effectiveness in reducing the number of tumors per rat” value ([3]; 90 days) was “not effective” and the “Tumors, % of Control Gp.” value [3, 11] was 104%. For the same molecule, the “Tumors, Avg. No. per Rat” value [3, 11] was 2.0, the “Tumors, % of Control Gp.” value [3, 12] was 171% and the “Tumors, Avg. No. per Rat” value [3, 12] was 3.3. For the same molecule, the “Tumors, % of Control Gp.” value [3, 13] was 109%, the “Tumors, Avg. No. per Rat” value [3, 13] was 2.1 and the “% recovery of retinyl ether from feed” value [4, 14] was 96%. For the same molecule, the “% recovery of retinyl ether from feed” value [4, 15] was 106%, the “% recovery of retinyl ether from feed” value [4, 16] was 96% and the “% recovery of retinyl ether from feed” value [4, 17] was 102%. For the same molecule, the “% recovery of retinyl ether from feed” value ([4]; Immediately After Mixing) was 103%, the “% recovery of retinyl ether” value [4] was 100% and the “stability in diet mixtures” value [4] was “essentially unchanged”. For the same molecule, the NOAEL (in vivo) was 431 mg/kg/day, the “Toxic Dose” value (in vivo) was over 431 mg/kg day and the “clinical toxicity (alopecia, scaly skin, limping)” value (in vivo) was “No evidence of clinical toxicity except for scaly skin”. The “Percent Inhibition of [3H] Retinol Binding (CRBP Assay)” value (“Percent Inhibition” below) [5] was 65 ± 10%.

For `CC1=C(/C=C/C(C)=C/C=C/C(C)=C/COCc2ccccc2)C(C)(C)CCC1` [Compound 3d, Retinyl Benzyl Ether], the “binding to CRBP, in words” value ([5]; 150-fold molar excess) was “not conducive to CRBP binding; also recorded: does not bind significantly to CRBP” and the “Percent Inhibition” value [5] was 5 ± 5%.

With `COc1ccc(COC/C=C(C)/C=C/C=C(C)/C=C/C2=C(C)CCCC2(C)C)cc1` [Compound 3e, Retinyl 4-Methoxybenzyl Ether] the “toxicity in MNU-mammary cancer studies” value [2] was “not toxic in the mammary carcinogenesis studies”, the “effectiveness compared with RTMBE” value ([3]; 90-day assays, MNU-induced mammary carcinogenesis) was “less effective than was RTMBE” and the “reductions in the number of tumors per rat” value ([3]; 90-day study, 1 and 2 mmol/kg of diet) was 37-49%. The “effectiveness in reducing the number of tumors per rat” value ([3]; 90 days) was “effective”, the “Tumors, % of Control Gp.” value [3, 18] was 71% and the “Tumors, Avg. No. per Rat” value [3, 18] was 2.5. For the same molecule, the “Tumors, % of Control Gp.” value [3, 19] was 63%, the “Tumors, Avg. No. per Rat” value [3, 19] was 2.2 and the “Tumors, % of Control Gp.” value [3, 20] was 51%. The “Tumors, Avg. No. per Rat” value [3, 20] was 1.8, the Kp at 24 h [6] was 41 ± 14 and the NOAEL (in vivo) was 433 mg/kg/day. The “Toxic Dose” value (in vivo) was over 433 mg/kg day, the “clinical toxicity (alopecia, scaly skin, limping)” value (in vivo) was “No evidence of clinical toxicity” and the “binding to CRBP, in words” value ([5]; 150-fold molar excess) was “not conducive to CRBP binding”. For the same molecule, the “Percent Inhibition” value [5] was 7 ± 7%.

For `COc1cccc(COC/C=C(C)/C=C/C=C(C)/C=C/C2=C(C)CCCC2(C)C)c1` [Compound 3f, Retinyl 3-Methoxy Benzyl Ether], the “binding to CRBP, in words” value ([5]; 150-fold molar excess) was “modest, but significant, binding affinity” and the “Percent Inhibition” value [5] was 20 ± 5%.

With `CC1=C(/C=C/C(C)=C/C=C/C(C)=C/COCc2ccc(C)cc2)C(C)(C)CCC1` [Compound 3g, Retinyl 4-Methylbenzyl Ether] the “binding to CRBP, in words” value ([5]; 150-fold molar excess) was “not conducive to CRBP binding” and the “Percent Inhibition” value [5] was 0%.

For `COc1cccc(COC/C=C(C)/C=C/C=C(C)/C=C/C2=C(C)CCCC2(C)C)c1OC` [Compound 3h, Retinyl 2,3-Dimethoxybenzyl Ether], the “effectiveness in reducing the number of tumors per rat” value ([3]; 90 days) was “not effective”, the “Tumors, % of Control Gp.” value [3, 11] was 114% and the “Tumors, Avg. No. per Rat” value [3, 11] was 2.2. For the same molecule, the “Tumors, % of Control Gp.” value [3, 12] was 104%, the “Tumors, Avg. No. per Rat” value [3, 12] was 2.0 and the “Tumors, % of Control Gp.” value [3, 13] was 145%. For the same molecule, the “Tumors, Avg. No. per Rat” value [3, 13] was 2.8, the “% recovery of retinyl ether from feed” value [4, 14] was 99.7% and the “% recovery of retinyl ether from feed” value [4, 15] was 95%. The “% recovery of retinyl ether from feed” value [4, 16] was 94%, the “% recovery of retinyl ether from feed” value [4, 17] was 97.9% and the “% recovery of retinyl ether from feed” value ([4]; Immediately After Mixing) was 95%. The “% recovery of retinyl ether” value [4] was 98.7%, the “stability in diet mixtures” value [4] was “essentially unchanged” and the “Percent Inhibition” value [5] was 0%.

In the case of `COc1ccc(COC/C=C(C)/C=C/C=C(C)/C=C/C2=C(C)CCCC2(C)C)c(OC)c1OC` [Compound 3i, Retinyl 2,3,4-Trimethoxybenzyl Ether], the “Percent Inhibition” value [5] is reported as 5 ± 5%.

For `CC1=C(/C=C/C(C)=C/C=C/C(C)=C/COCc2c(C)cc(C)cc2C)C(C)(C)CCC1` [Compound 3j, Retinyl 2,4,6-Trimethylbenzyl Ether], the “Percent Inhibition” value [5] was 7 ± 6%.

With `CC1=C(/C=C/C(C)=C/C=C/C(C)=C/COCc2ccc(Cl)cc2Cl)C(C)(C)CCC1` [Compound 3k, Retinyl 2,4-Dichlorobenzyl Ether] the “Percent Inhibition” value [5] was 0%.

For `CC1=C(/C=C/C(C)=C/C=C/C(C)=C/COCc2c(Cl)cccc2Cl)C(C)(C)CCC1` [Compound 3l, Retinyl 2,6-Dichlorobenzyl Ether], the “Percent Inhibition” value [5] was 40 ± 5%.

For `CC1=C(/C=C/C(C)=C/C=C/C(C)=C/COC(C)c2ccccc2)C(C)(C)CCC1` (stereo not drawn) [Compound 3m, Retinyl α-Methylbenzyl Ether], the “Binding to CRBP, rating” value ([5]; 150-fold molar excess) was “strong binding” and the “Percent Inhibition” value [5] was 60 ± 0%.

In the case of `CC(C)=CCOC/C=C(C)/C=C/C=C(C)/C=C/C1=C(C)CCCC1(C)C` [RMBE, retinyl 3-methyl-2-butenyl ether], the “suppression of MNU-induced mammary cancer” value [7] is listed as “inhibited the development of MNU-induced mammary cancer; also recorded: only modestly active” and the “accumulation of retinyl palmitate in the liver” value [8] is listed as “did not cause”.

In the case of `CC(=O)OC/C=C(C)/C=C/C=C(C)/C=C/C1=C(C)CCCC1(C)C` [Retinyl Acetate, retinyl acetate, reference compound], the “reduction of the number of tumors per rat” value ([3]; 90 days, at 1 mmol/kg) is reported as 66%, the “Tumors, % of Control Gp.” value [3, 19] is reported as 34% and the “Tumors, Avg. No. per Rat” value [3, 19] is reported as 1.2. For the same molecule, the “% of Control Gp., Day 90” value [9] was 48%, the “% of Control Gp., Day 180” value [9] was 49% and the “Avg No. Per Rat (palpable mammary tumors), Day 90” value [9] was 1.1. For the same molecule, the “Avg No. Per Rat (palpable mammary tumors), Day 180” value [9] was 3.1, the “Adenocarcinomas, % of Control Group A” value ([10]; 1 mmol/kg diet) was 70% and the “Adenocarcinomas, Avg. No. Per Rat” value ([10]; 1 mmol/kg diet) was 4.5. For the same molecule, the “reduction of average number of tumors per rat” value ([10]; 1 mmol/kg feed) was 30% and the “accumulation of retinyl palmitate in the liver” value [8] was “a toxic effect produced by efficacious amounts”.

Reference: patent publication US6281250A, “Retinyl ethers, derivatives and analogues and inhibition of breast carcinogenesis” (Southern Research Institute, priority 1999, dated 2001)
